{
  "source": "ChEMBL document CHEMBL1201862",
  "about": "“PubChem BioAssay data set” (2004)",
  "key": {"[1]": {"target": "Voltage-dependent T-type calcium channel subunit alpha-1H (Homo sapiens, UniProt O95180)", "format": "functional"}, "[2]": {"target": "T1, Rac GTPase-activating protein 1 (Homo sapiens, UniProt Q9H0H5)", "T1 sequence (Q9H0H5 whole entry)": "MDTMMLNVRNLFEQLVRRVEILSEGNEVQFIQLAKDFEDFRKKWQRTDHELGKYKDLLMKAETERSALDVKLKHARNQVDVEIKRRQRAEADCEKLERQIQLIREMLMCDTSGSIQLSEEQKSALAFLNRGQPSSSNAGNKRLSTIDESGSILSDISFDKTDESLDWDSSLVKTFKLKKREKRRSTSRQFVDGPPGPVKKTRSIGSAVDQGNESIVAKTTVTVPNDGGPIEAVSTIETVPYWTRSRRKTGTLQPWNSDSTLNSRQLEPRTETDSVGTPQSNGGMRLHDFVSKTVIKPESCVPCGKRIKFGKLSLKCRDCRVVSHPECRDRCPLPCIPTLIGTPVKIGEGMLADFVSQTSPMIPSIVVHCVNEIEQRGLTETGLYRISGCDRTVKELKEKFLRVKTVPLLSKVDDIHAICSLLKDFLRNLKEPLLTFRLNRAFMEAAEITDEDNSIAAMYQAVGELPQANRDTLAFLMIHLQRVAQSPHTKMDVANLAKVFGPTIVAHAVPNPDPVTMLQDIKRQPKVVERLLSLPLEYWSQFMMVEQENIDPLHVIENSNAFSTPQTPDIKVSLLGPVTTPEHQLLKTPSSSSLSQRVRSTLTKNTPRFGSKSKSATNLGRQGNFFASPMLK", "experiment": "MgcRacGAP GTPase-activating activity inhibitors, confirmation, biochemical, ADP Hunter fluorescence, primary and confirmatory (AID 624330)", "format": "functional"}, "[3]": {"target": "T2, Polyadenylate-binding protein 1 (Homo sapiens, UniProt P11940)", "T2 sequence (P11940 whole entry)": "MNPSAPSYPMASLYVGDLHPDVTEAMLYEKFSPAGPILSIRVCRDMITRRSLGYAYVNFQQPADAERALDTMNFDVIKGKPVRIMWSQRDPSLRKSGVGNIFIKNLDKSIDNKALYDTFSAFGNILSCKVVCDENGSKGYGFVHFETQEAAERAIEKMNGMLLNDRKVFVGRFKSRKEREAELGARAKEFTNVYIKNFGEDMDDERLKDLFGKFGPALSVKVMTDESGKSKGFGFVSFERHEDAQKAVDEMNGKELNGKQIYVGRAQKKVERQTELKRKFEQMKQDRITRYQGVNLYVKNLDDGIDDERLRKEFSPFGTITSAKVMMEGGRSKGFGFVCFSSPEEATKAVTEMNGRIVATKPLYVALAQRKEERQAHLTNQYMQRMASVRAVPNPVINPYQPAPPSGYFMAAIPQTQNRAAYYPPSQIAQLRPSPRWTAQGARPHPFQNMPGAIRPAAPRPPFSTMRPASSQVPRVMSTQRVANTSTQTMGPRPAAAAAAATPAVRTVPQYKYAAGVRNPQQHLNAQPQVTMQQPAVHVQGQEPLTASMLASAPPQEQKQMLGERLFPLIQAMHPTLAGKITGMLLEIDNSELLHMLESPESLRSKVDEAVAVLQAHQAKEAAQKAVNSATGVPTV", "experiment": "PABP1 MLLE–PAM2 binding inhibitor potency, dose response, biochemical, fluorescence polarization, FITC-PAM2 peptide (AID 602259)", "format": "functional", "details": "read-out: IC50_Mean"}, "[4]": {"target": "T2, Polyadenylate-binding protein 1", "experiment": "PABP1 MLLE–PAM2 interaction inhibitors, dose response, miRNA deadenylation inhibitor project, biochemical, fluorescence polarization, Cy5-PAM2 peptide, secondary (AID 602260)", "format": "functional", "details": "read-out: IC50_Mean"}, "Genome polyprotein": {"target": "Genome polyprotein (dengue virus type 2, UniProt P29990)", "sequence (P29990 2492-3391 limits assumed)": "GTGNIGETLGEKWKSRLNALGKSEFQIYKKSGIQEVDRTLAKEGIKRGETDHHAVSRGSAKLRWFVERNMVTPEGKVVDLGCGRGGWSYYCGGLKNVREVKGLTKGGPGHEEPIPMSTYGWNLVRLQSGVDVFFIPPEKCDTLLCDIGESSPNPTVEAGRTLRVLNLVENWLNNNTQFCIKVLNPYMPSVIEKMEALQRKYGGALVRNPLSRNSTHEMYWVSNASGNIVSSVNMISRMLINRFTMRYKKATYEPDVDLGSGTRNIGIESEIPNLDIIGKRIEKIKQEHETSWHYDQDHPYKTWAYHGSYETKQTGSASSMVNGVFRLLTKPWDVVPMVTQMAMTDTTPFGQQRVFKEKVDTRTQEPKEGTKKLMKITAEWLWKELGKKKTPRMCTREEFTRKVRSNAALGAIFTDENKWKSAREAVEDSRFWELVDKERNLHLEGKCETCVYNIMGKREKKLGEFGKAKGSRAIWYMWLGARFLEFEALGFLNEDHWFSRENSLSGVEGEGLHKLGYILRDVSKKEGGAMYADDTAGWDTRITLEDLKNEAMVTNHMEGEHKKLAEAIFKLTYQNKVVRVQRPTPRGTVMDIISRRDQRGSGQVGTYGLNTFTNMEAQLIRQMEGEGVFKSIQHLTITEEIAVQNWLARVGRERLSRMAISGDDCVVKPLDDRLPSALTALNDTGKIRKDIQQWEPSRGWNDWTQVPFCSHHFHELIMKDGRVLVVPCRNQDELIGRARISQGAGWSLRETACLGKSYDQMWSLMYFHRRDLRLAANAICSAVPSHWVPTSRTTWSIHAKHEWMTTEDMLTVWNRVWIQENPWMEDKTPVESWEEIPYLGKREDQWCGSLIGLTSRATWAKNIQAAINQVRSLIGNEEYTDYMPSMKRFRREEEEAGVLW", "experiment": "Dengue-2 NS5 methyltransferase inhibitors, primary screen, biochemical, confirmation dose response (AID 588689)", "format": "functional"}, "Fatty acid synthase [5]": {"target": "T3, Fatty acid synthase (Homo sapiens, UniProt P49327)", "T3 sequence (P49327 whole entry, the tested form may be a part)": "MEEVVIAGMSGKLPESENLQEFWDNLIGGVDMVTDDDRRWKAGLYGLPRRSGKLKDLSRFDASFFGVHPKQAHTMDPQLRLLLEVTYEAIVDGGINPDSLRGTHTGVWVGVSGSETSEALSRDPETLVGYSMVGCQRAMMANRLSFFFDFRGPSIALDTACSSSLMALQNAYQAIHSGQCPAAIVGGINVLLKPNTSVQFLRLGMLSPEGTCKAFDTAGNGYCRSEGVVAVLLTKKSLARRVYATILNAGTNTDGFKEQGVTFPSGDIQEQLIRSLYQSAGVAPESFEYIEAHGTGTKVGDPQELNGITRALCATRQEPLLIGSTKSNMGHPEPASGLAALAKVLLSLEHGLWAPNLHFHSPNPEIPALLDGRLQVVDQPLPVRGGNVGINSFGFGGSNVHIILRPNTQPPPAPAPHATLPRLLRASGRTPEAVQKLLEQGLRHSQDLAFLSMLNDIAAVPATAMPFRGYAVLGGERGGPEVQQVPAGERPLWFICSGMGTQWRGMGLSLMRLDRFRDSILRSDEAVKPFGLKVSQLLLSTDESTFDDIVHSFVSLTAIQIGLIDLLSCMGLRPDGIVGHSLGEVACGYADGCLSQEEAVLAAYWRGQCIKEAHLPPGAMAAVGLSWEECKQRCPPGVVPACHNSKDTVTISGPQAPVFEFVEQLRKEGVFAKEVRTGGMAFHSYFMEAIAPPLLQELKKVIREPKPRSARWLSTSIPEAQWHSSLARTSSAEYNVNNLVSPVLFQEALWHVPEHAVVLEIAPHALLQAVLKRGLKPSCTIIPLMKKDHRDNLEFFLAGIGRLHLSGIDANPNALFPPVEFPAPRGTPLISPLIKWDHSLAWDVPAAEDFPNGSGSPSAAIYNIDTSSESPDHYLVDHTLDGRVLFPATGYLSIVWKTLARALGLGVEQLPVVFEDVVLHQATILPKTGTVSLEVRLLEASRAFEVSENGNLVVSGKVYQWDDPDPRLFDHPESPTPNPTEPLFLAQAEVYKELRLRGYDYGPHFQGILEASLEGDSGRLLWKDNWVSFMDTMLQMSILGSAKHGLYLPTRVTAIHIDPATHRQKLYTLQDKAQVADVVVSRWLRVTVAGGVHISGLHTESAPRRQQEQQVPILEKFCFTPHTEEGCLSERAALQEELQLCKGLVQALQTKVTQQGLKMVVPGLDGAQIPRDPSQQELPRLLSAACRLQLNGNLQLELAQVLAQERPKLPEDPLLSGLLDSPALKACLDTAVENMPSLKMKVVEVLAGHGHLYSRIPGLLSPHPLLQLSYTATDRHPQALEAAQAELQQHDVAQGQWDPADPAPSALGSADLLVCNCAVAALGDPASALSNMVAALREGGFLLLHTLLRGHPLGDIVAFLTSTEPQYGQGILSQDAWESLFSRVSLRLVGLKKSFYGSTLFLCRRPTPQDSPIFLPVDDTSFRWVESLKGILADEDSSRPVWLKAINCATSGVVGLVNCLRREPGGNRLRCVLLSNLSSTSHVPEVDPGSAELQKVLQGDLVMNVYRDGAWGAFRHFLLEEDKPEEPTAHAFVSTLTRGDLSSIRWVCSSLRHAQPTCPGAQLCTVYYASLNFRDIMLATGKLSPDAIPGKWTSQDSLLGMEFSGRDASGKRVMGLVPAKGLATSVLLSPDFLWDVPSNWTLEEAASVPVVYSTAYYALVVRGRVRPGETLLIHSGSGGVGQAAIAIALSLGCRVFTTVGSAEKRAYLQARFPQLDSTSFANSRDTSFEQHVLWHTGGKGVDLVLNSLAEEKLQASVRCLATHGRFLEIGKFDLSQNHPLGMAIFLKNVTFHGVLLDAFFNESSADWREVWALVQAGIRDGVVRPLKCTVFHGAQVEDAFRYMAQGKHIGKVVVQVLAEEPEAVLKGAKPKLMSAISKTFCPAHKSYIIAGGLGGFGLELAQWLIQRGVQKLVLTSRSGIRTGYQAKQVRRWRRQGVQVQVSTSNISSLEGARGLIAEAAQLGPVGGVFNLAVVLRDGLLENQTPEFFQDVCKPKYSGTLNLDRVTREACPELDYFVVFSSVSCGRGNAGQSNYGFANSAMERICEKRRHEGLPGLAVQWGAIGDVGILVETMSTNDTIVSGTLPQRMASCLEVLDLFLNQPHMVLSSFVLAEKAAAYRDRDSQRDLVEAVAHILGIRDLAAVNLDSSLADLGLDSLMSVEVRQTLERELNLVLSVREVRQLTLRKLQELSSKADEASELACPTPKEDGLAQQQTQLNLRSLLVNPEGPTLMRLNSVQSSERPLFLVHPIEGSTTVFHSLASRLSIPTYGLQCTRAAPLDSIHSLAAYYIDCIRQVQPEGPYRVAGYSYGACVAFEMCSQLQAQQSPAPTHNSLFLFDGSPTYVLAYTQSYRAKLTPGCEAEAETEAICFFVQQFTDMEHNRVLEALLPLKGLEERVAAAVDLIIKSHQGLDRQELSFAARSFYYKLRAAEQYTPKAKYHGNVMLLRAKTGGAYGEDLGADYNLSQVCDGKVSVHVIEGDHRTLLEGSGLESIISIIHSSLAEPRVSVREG", "experiment": "FAS thioesterase domain inhibitors, dose response, biochemical, kinetic fluorescence intensity (AID 624326);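 further: rate of fluorescence rise from hydrolysis of a fluorogenic O-methyl fluorescein ester substrate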", "format": "functional"}, "Fatty acid synthase [6]": {"target": "T3, Fatty acid synthase", "experiment": "FAS thioesterase domain inhibitors, dose response, biochemical, endpoint fluorescence intensity, uHTS hits (AID 624327);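 further: fluorescence from hydrolysis of an O-methyl fluorescein acyl ester substrate by the enzyme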", "format": "functional"}, "Cytochrome P450 3A4": {"target": "Cytochrome P450 3A4 (Homo sapiens, UniProt P08684)", "sequence (P08684 whole entry)": "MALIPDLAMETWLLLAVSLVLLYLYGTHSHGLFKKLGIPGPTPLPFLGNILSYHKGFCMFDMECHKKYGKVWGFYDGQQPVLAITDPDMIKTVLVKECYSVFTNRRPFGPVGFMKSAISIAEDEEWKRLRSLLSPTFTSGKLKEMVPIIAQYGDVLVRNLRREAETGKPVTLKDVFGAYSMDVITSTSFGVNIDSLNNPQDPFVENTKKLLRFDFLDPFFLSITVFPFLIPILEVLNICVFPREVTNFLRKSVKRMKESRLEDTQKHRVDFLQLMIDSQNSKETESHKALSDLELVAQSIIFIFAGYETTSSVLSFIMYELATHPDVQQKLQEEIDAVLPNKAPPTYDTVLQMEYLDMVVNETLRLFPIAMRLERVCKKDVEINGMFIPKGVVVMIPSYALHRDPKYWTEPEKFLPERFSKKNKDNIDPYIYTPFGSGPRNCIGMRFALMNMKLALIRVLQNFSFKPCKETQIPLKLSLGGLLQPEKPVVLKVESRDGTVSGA"}, "Cytochrome P450 1A2": {"target": "T4, Cytochrome P450 1A2 (Homo sapiens, UniProt P05177)", "T4 sequence (P05177 whole entry)": "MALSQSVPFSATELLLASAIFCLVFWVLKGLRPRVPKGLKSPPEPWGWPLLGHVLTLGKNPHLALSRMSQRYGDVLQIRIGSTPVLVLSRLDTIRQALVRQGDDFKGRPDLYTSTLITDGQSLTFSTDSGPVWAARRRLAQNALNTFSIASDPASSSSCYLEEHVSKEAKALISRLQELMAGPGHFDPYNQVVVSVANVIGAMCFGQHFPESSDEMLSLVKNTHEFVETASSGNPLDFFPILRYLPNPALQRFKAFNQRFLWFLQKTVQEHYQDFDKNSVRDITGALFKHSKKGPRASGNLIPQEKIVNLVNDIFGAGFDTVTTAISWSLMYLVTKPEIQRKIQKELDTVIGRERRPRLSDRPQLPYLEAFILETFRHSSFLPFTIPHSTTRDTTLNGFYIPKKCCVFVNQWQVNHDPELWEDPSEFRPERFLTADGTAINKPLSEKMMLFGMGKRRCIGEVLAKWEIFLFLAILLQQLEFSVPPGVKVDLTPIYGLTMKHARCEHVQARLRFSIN"}, "[7]": {"experiment": "THP-1 cell cytotoxicity, dose response, cytotoxicity control for Vif-APOBEC3G degradation inhibitor project, THP-1 cells (AID 1117359)", "format": "functional", "details": "Human immunodeficiency virus 1, THP-1"}, "[8]": {"target": "T5, Short transient receptor potential channel 4 (Mus musculus, UniProt Q9QUQ5)", "T5 sequence (Q9QUQ5 whole entry)": "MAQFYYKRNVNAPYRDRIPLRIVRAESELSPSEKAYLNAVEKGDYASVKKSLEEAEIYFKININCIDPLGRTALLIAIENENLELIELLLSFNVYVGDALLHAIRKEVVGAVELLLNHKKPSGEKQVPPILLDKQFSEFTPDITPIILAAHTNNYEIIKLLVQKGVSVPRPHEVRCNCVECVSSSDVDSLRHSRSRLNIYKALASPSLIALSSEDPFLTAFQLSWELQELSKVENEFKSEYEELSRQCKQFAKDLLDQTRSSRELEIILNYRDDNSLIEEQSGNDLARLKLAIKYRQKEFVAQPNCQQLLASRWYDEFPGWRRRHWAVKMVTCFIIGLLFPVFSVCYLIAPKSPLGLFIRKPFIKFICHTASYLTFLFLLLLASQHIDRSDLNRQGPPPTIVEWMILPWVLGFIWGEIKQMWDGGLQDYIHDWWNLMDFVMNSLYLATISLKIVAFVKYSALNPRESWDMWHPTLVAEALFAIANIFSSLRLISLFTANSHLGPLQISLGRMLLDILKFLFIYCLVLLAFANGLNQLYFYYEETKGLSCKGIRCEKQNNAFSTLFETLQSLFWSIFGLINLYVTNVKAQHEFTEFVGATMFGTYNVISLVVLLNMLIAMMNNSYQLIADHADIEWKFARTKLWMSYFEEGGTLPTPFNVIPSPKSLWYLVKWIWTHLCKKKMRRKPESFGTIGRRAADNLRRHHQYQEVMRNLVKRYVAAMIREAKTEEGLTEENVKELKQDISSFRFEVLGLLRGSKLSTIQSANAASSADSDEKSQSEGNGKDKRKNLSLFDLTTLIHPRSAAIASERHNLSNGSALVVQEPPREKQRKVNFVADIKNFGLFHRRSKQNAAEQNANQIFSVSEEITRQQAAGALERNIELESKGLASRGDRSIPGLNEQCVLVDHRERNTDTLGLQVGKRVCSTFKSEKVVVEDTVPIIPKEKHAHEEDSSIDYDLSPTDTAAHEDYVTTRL", "experiment": "mouse TRPC4 channel inhibitors, dose response, cell-based, HEK293 TRPC4/mu-opioid, Fluo-4 calcium (AID 434942)", "format": "functional"}, "[9]": {"experiment": "inhibitors of HIV Env-driven cell fusion, dose response, cherry-pick (AID 652057)", "format": "functional, cell-based"}, "[10]": {"experiment": "inhibitors of clade B AD8 Env fusion, dose response, cell-based, cherry-pick (AID 652062);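 further: potency is for inhibitors of fusion seen as a drop in luminescence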", "format": "functional"}, "[11]": {"experiment": "ZM109 Env clade C HIV-1 fusion inhibitors, dose response, HeLa effector, CEM target cells, luciferase, cherry-pick (AID 652058)", "format": "functional, cell-based"}},
  "note": "Calls of active or inactive are those of the source.",
  "data": [
    {"smiles": "Cc1ccc(-c2noc(CN(C(=O)C(c3ccccc3)c3ccccc3)C(C)C)n2)cc1", "values": [
      {"measurement": "EC50", "setting": "[1]", "result": "5.14 µM (active)"}
    ]},
    {"smiles": "COc1cccc(/C=C2\\C(=O)C(=O)c3ccccc32)c1", "values": [
      {"measurement": "IC50", "setting": "[2]", "result": "47.3 µM (active)"},
      {"measurement": "IC50", "setting": "[3]", "result": "> 66 µM (inactive)"},
      {"measurement": "IC50", "setting": "[4]", "result": "> 66 µM (inactive)"},
      {"measurement": "IC50", "setting": "Genome polyprotein", "result": "12.9 µM (active)"}
    ]},
    {"smiles": "COc1ccc(N2CCN(C(=O)CC(NC(N)=O)c3cccc(Oc4ccccc4)c3)CC2)cc1", "note": "(stereo unspecified)", "values": [
      {"measurement": "EC50", "setting": "[1]", "result": "13.7 µM (active)"}
    ]},
    {"smiles": "Cc1cc(C)c2c(N)c(C(=O)NCC3CCCCC3)sc2n1", "values": [
      {"measurement": "IC50", "setting": "[3]", "result": "> 66 µM (inactive)"},
      {"measurement": "IC50", "setting": "[4]", "result": "> 66 µM (inactive)"}
    ]},
    {"smiles": "COC(=O)C(CCCCNC(=O)c1ccc([N+](=O)[O-])cc1)NC(=O)c1ccc([N+](=O)[O-])cc1", "note": "(stereo unspecified)", "values": [
      {"measurement": "IC50", "setting": "Fatty acid synthase [5]", "result": "55.8 µM (inactive)"},
      {"measurement": "IC50", "setting": "Fatty acid synthase [6]", "result": "33.6 µM (inactive)"}
    ]},
    {"smiles": "CCN(CC)CCSC(=O)C(c1ccccc1)c1ccccc1", "values": [
      {"measurement": "IC50", "setting": "[3]", "result": "> 66 µM (inactive)"},
      {"measurement": "IC50", "setting": "[4]", "result": "> 66 µM (inactive)"}
    ]},
    {"smiles": "CC(C)c1ccc(CN(C(=O)C2COc3ccccc3O2)C2CCS(=O)(=O)C2)cc1", "note": "(stereo unspecified)", "values": [
      {"measurement": "EC50", "setting": "[1]", "result": "6.86 µM (active)"},
      {"measurement": "AC50", "setting": "Cytochrome P450 3A4", "result": "28.2 µM (inconclusive)"},
      {"measurement": "AC50", "setting": "Cytochrome P450 1A2", "result": "25.1 µM (inconclusive)"}
    ]},
    {"smiles": "O=C(CC1NCCNC1=O)Nc1ccc(Oc2ccccc2)cc1", "note": "(stereo unspecified)", "values": [
      {"measurement": "EC50", "setting": "[1]", "result": "8.83 µM (active)"}
    ]},
    {"smiles": "COC(=O)N1C(=O)[C@](Cc2ccccc2)(c2ccccc2)N1C(=O)OC", "values": [
      {"measurement": "IC50", "setting": "Fatty acid synthase [5]", "result": "4.85 µM (active)"},
      {"measurement": "IC50", "setting": "Fatty acid synthase [6]", "result": "5.18 µM (active)"}
    ]},
    {"smiles": "Cc1nn(Cc2ccc([N+](=O)[O-])cc2)c(=O)n1N(C)c1ncc(C(F)(F)F)cc1Cl", "values": [
      {"measurement": "IC50", "setting": "Fatty acid synthase [5]", "result": "2.51 µM (active)"},
      {"measurement": "IC50", "setting": "Fatty acid synthase [6]", "result": "4.91 µM (active)"}
    ]},
    {"smiles": "CN1C(C(=O)NCc2cccc(Br)c2)CC2Cn3c(nc4cc(Cl)c(Cl)cc43)C21", "note": "(stereo unspecified)", "values": [
      {"measurement": "IC50", "setting": "Fatty acid synthase [5]", "result": "10.3 µM (active)"},
      {"measurement": "IC50", "setting": "Fatty acid synthase [6]", "result": "15.2 µM (active)"}
    ]},
    {"smiles": "CC1CCN(c2ccc([N+](=O)[O-])c(SCCO)c2)CC1", "values": [
      {"measurement": "CC50", "setting": "[7]", "result": "> 40 µM (active)"}
    ]},
    {"smiles": "CC[C@]1(C(=O)OC)[C@H]2C(=O)N(Cc3ccccc3)C(=O)[C@H]2[C@H]2CN=C(SCC(=O)c3ccccc3)N21", "values": [
      {"measurement": "IC50", "setting": "[3]", "result": "> 66 µM (inactive)"},
      {"measurement": "IC50", "setting": "[4]", "result": "> 66 µM (inactive)"}
    ]},
    {"smiles": "O=C(COc1ccc(Cl)cc1)Nc1ccc(C(=O)O)cc1NC(=O)COc1ccc(Cl)cc1", "values": [
      {"measurement": "IC50", "setting": "Fatty acid synthase [5]", "result": "7.29 µM (active)"},
      {"measurement": "EC50", "setting": "[8]", "result": "0.0013 µM (active)"},
      {"measurement": "IC50", "setting": "Fatty acid synthase [6]", "result": "15.3 µM (active)"}
    ]},
    {"smiles": "C[C@H]1CN([C@@H](C)CO)S(=O)(=O)c2ccc(Br)cc2O[C@H]1CN(C)Cc1ccccc1", "values": [
      {"measurement": "AC50", "setting": "[9]", "result": "23.5 µM (active)"},
      {"measurement": "AC50", "setting": "[10]", "result": "33.4 µM (active)"},
      {"measurement": "AC50", "setting": "[11]", "result": "20.6 µM (active)"}
    ]},
    {"smiles": "O=C(c1cccc(C(F)(F)F)c1)C1CCCN(C(=O)CCCN2CCCC2=O)C1", "note": "(stereo unspecified)", "values": [
      {"measurement": "CC50", "setting": "[7]", "result": "> 40 µM (active)"}
    ]},
    {"smiles": "COc1ccc(NC(=O)Nc2ccc3c(c2)C(=O)N([C@@H](C)CO)C[C@H](C)[C@H](CN(C)S(=O)(=O)c2ccc(C)cc2)O3)cc1", "values": [
      {"measurement": "AC50", "setting": "[9]", "result": "6.5 µM (active)"},
      {"measurement": "AC50", "setting": "[10]", "result": "23 µM (active)"},
      {"measurement": "AC50", "setting": "[11]", "result": "17.5 µM (active)"}
    ]},
    {"smiles": "c1ccc2c3c([nH]c2c1)CNCC3", "note": "[TRYPTOLINE]", "values": [
      {"measurement": "CC50", "setting": "[7]", "result": "28.7 µM (active)"}
    ]}
  ]
}
